Values after ≈ are worked out from the molar mass of the structure shown. Where two headings read alike, the source gives them in different places.
Key:
Format in all cases: cell-based
Coxsackie virus B6 = experiment: Coxsackie virus activity assay (CPE in Vero cells); details: Vero, read-out: COX-B6 IC50, Vero cells, about 100TCID50, CPE, Reed-Muench
HCV = experiment: Anti-hepatitis C virus (HCV) activity assay (HCV RNA in Huh7.5 cells); details: for EC50: Hepatitis C virus, Huh7.5, 72 h, read-out: HCV EC50; for anti-HCV viral activity: statement in words
Experimental: Inoculate Huh7.5 cells into 96-well plates to a density of 3×10^4 cells/cm^2, culture for 24h, infect the cells with 45 IU/cell HCV supernatant, meanwhile, add drug solutions or solvent control for treatment.

PC12 cells [1] = experiment: Neuroprotective activity assay, rotenone injury to PC12 cells (MTT); details: for viability at 10 µM: Rattus norvegicus, PC-12, 48 h, 10 μM test compound, 4 μM rotenone, 48 h, Control 100.0 ± 8.9, Model 73.2 ± 7.8, read-out: rotenone (surviving PC12 cells, MTT 570 nm); for protective effect on rotenone injury to PC12 cells: statement in words
How it was run: (§1)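 PC12 cells on poly-lysine plated 24 h, then injured 48 h by serum-free DMEM or 4 μM rotenone with 10 μM test compound present during injury. Viability read by MTT (4 h), absorbance 570 nm.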

[2] = system: Influenza A virus (hanfang359/95); experiment: Determination of anti-influenza virus activity (CPE in MDCK cells); details: for IC50: Influenza A virus, MDCK, 36 h; for anti-influenza virus activities compared with the lead compound cajanine: statement in words
PC12 cells [3] = experiment: Neuroprotective activity assay, serum-deprived injury to PC12 cells (MTT); details: for viability at 10 µM: Rattus norvegicus, PC-12, 48 h, 10 μM test compound, 48 h, Control 100.0 ± 9.2, Model 69.3 ± 4.1, read-out: serum-deprived (surviving PC12 cells, MTT 570 nm); for protective effect on serum-deprived injury to PC12 cells: statement in words
How it was run: as §1

HIV-1 III B virus = experiment: Anti-HIV activity assay (P24 antigen in MT-4 cells); details: for IC50: Human immunodeficiency virus 1, MT4, 96 h, MT-4 cells, HIV-1 III B 100TCID50, 96 h, P24 antigen, read-out: HIV IC50; for anti-HIV viral activity: statement in words
[4] = Huh7.5 cells, 72 h, HCV RNA by RT-PCR, Reed-Muench

Row | SMILES | IC50 (Coxsackie virus B6) | EC50 (HCV; [4]) | viability at 10 µM (PC12 cells [1]) | IC50 [2] | viability at 10 µM (PC12 cells [3]) | IC50 (HIV-1 III B virus) | anti-HCV viral activity (HCV) | anti-HIV viral activity (HIV-1 III B virus) | protective effect on rotenone injury to PC12 cells (PC12 cells [1]) | protective effect on serum-deprived injury to PC12 cells (PC12 cells [3]) | anti-influenza virus activities compared with the lead compound cajanine [2] | EC50 (HCV)
1 | COC(=O)c1c(CCc2ccccc2)cc(OC)c(CC=C(C)C)c1O [Compound 36, methyl 2-hydroxy-3-isopentenyl-4-methoxy-6-phenethyl benzoate] | > 2.46 µg/mL | 3.86 µg/mL (≈ 10.9 µM) | 72.2 ± 12.2% | > 2.46 µg/mL | 41 ± 15.4% | 1.06 µg/mL (≈ 2.99 µM) | – | – | – | – | – | –
2 | COc1cc(/C=C/c2ccc(F)cc2)c(C(=O)O)c(O)c1CC=C(C)C [Compound 1a, 2-hydroxy-3-isopentenyl-4-methoxy-6-[(E)-4-fluorostyryl]benzoic acid] | > 0.69 µg/mL | 1.04 µg/mL (≈ 2.92 µM) | 62.4 ± 3.8% | > 0.69 µg/mL | 16.7 ± 0.6% | 1.01 µg/mL (≈ 2.83 µM) | stronger anti-HIV, HCV viral activities | stronger anti-HIV, HCV viral activities | – | – | – | –
3 | COc1cc(CCc2ccccc2)cc(O)c1CCC(C)C [Compound 10u, 2-isopentyl-3-methoxy-5-phenethyl phenol] | > 6.19 µg/mL | 4.06 µg/mL (≈ 13.6 µM) | 85.4 ± 2.3% | > 2.06 µg/mL | 87.6 ± 3.2% | 6.39 µg/mL (≈ 21.4 µM) | – | – | the strongest activities | the strongest activities | – | –
4 | COc1cccc(OC)c1/C=C/c1cc(O)c(CC=C(C)C)c(OC)c1 [Compound 10d, 2-isopentenyl-3-methoxy-5-[(E)-2′,6′-dimethoxy-styryl]phenol] | > 2.05 µg/mL | 2.37 µg/mL (≈ 6.69 µM) | 78.9 ± 6.1% | > 6.17 µg/mL | 79.3 ± 5.4% | 1.05 µg/mL (≈ 2.96 µM) | – | – | the strongest activities | the strongest activities | – | –
5 | COc1cc(/C=C/c2cc(OC)c(OC)c(OC)c2)c(C(=O)O)c(O)c1CC=C(C)C [Compound 1u, 2-hydroxy-3-isopentenyl-4-methoxy-6-[(E)-(3,4,5-trimethoxystyryl)]benzoic acid] | 0.14 µg/mL (≈ 0.327 µM) | 0.84 µg/mL (≈ 1.96 µM) | 90 ± 3.2% | 0.21 µg/mL (≈ 0.49 µM) | 89.3 ± 2.3% | 0.16 µg/mL (≈ 0.373 µM) | stronger anti-HIV, HCV viral activities | stronger anti-HIV, HCV viral activities | the strongest activities | the strongest activities | significantly stronger than the lead compound cajanine | –
6 | COc1cc(/C=C/c2ccccc2)c(C(=O)OCC(O)CO)c(O)c1CC=C(C)C (stereo not drawn) [Compound 9e, 2,3-dihydroxypropyl2-hydroxy-3-isopentenyl-4-methoxy-6-[(E)-styryl]benzoate] | 0.21 µg/mL (≈ 0.509 µM) | 0.66 µg/mL (≈ 1.6 µM) | 90.8 ± 4.3% | 0.1 µg/mL (≈ 0.242 µM) | 91.3 ± 2.4% | 0.73 µg/mL (≈ 1.77 µM) | stronger anti-HIV, HCV viral activities | stronger anti-HIV, HCV viral activities | the strongest activities | the strongest activities | significantly stronger than the lead compound cajanine | –
7 | CC/C=C/c1cc(OC)c(CC=C(C)C)c(O)c1C(=O)O [Compound 1h, 2-hydroxy-3-isopentenyl-4-methoxy-6-[(E)-buten-1-yl]benzoic acid] | 15.3 µg/mL (≈ 52.7 µM) | 2.6 µg/mL (≈ 8.95 µM) | 70 ± 7.1% | 1.92 µg/mL (≈ 6.61 µM) | 43.8 ± 8.8% | 2.39 µg/mL (≈ 8.23 µM) | – | – | – | – | – | –
8 | COc1cc(/C=C/Cc2ccccc2)cc(OC)c1 [Compound 21a, 1,3-dimethoxy-5-[(E)-3-phenylpropen-1-yl]benzene] | 4.23 µg/mL (≈ 16.6 µM) | 2.83 µg/mL (≈ 11.1 µM) | 80.5 ± 2.3% | 1.32 µg/mL (≈ 5.19 µM) | 81.2 ± 2.4% | 1.1 µg/mL (≈ 4.33 µM) | – | – | – | – | – | –
9 | COC(=O)c1c(/C=C/C2CCCCC2)cc(OC)c(CC=C(C)C)c1O [Compound 8p, methyl 2-hydroxy-3-isopentenyl-4-methoxy-6-[(E)-2-cyclohexyl-vinyl]benzoate] | > 2.06 µg/mL | 11.4 µg/mL (≈ 31.7 µM) | 84.6 ± 5.9% | 10.3 µg/mL (≈ 28.9 µM) | 82.3 ± 5.6% | 21.1 µg/mL (≈ 58.9 µM) | – | – | the strongest activities | the strongest activities | – | –
10 | COc1cc(/C=C/c2ccccc2)c(C(=O)O)c(OC)c1CC=C(C)C [Compound 15, 2-methoxy-3-isopentenyl-4-methoxy-6-[(E)-styryl]benzoic acid] | > 2.06 µg/mL | 0.83 µg/mL (≈ 2.36 µM) | 83.1 ± 5.7% | > 0.23 µg/mL | 74.1 ± 2.5% | 1.43 µg/mL (≈ 4.06 µM) | – | – | – | – | – | –
11 | COc1ccnc(/C=C/c2cc(OC)c(CC=C(C)C)c(O)c2C(=O)O)c1 [Compound 1v, 2-hydroxy-3-isopentenyl-4-methoxy-6-[(E)-2-(4-methoxypyrid-2-yl)ethenyl]benzoic acid] | 1.25 µg/mL (≈ 3.38 µM) | – | 87.2 ± 2.6% | 2.31 µg/mL (≈ 6.25 µM) | 79.9 ± 1.6% | 1.48 µg/mL (≈ 4.01 µM) | – | – | – | – | – | 1.25 µg/mL (≈ 3.38 µM)
12 | CC/C=C/c1cc(OC)c(CC=C(C)C)c(O)c1C(=O)OC [Compound 8h, methyl 2-hydroxy-3-isopentenyl-4-methoxy-6-[(E)-buten-1-yl]-benzoate] | > 2.06 µg/mL | 1.42 µg/mL (≈ 4.67 µM) | 72.4 ± 4.3% | 1.92 µg/mL (≈ 6.31 µM) | 35.4 ± 10.6% | 2.66 µg/mL (≈ 8.74 µM) | – | – | – | – | – | –
13 | COc1cc(CCc2ccccc2)cc(O)c1CC=C(C)C [Compound 10v, 2-isopentenyl-3-methoxy-5-phenethyl phenol] | > 6.19 µg/mL | 1.73 µg/mL (≈ 5.84 µM) | 87.1 ± 2.5% | > 0.69 µg/mL | 85.2 ± 4.1% | 1.36 µg/mL (≈ 4.59 µM) | – | – | the strongest activities | the strongest activities | – | –
14 | Oc1cc(O)cc(/C=C/c2cc(O)c(O)c(O)c2)c1 [Compound 21k, 1,3-dihydroxy-5-[(E)-3,4,5-trihydroxystyryl]benzene] | 0.78 µg/mL (≈ 3 µM) | 8.36 µg/mL (≈ 32.1 µM) | 71.3 ± 8% | 0.54 µg/mL (≈ 2.07 µM) | 74.5 ± 5.8% | 10.3 µg/mL (≈ 39.7 µM) | – | – | – | – | significantly stronger than the lead compound cajanine | –
15 | COc1cc(/C=C/CCc2ccccc2)c(C(=O)O)c(O)c1CC=C(C)C [Compound 1l, 2-hydroxy-3-isopentenyl-4-methoxy-6-[(E)-4′-phenylbuten-1′-yl]benzoic acid] | > 2.06 µg/mL | 0.65 µg/mL (≈ 1.77 µM) | 58.4 ± 1.4% | 0.36 µg/mL (≈ 0.982 µM) | 27.2 ± 7.2% | 1.64 µg/mL (≈ 4.48 µM) | stronger anti-HIV, HCV viral activities | stronger anti-HIV, HCV viral activities | – | – | significantly stronger than the lead compound cajanine | –
16 | COc1cc(/C=C/c2ccccc2)c(C(=O)O)c(O)c1C/C=C(\C)CCC=C(C)C [Compound 1o] | 1.36 µg/mL (≈ 3.35 µM) | 1.47 µg/mL (≈ 3.62 µM) | 61 ± 2.8% | > 2.47 µg/mL | 28.1 ± 11.9% | 1.76 µg/mL (≈ 4.33 µM) | – | – | – | – | – | –

Reference: patent publication US9359298B2, “Cajanine structure analogous compound, preparation method and use” (INSTITUTE OF MEDICINAL BIOTECHNOLOGY, CHINESE ACADEMY OF …, priority 2011, dated 2016)
